The results in this text go back to ChEMBL document CHEMBL5052856, “Inhibitors of apol1 and methods of using same” (2021).

For one test, the target named is Apolipoprotein L1 (Homo sapiens, UniProt O14791). In words: Inhibition of APOL1 G1 variant in human HEK293-T-REx cells measured by Thallium assay. The format is cell-based.
Test [1] concerns Trypanosoma brucei brucei. In words: Antitrypanosomal activity against Trypanosoma brucei brucei assessed as trypanosome lysis using recombinant APOL1 protein G1 variant and measured by Alamar blue based fluoresence assay. The format is functional, organism-based. A general note: Resazurin is reduced to fluorescent resorufin, in cell work by metabolically active cells.

Turning to `CC(O)(CO)CNC(=O)[C@H]1C[C@H](c2c(-c3ccc(F)cc3)[nH]c3c(F)cc(F)cc32)C1` (stereo not given in full), the IC50 (against Apolipoprotein L1; in test [1]) was over 1000 nM throughout.
As to `NC(=O)CNCC1CC(c2c(-c3ccc(F)cc3)[nH]c3c(F)cc(F)cc23)C1` (stereo not given), the IC50 (at Apolipoprotein L1; in test [1]) was under 250 nM in each case.
For `O=C(NC[C@@H](O)CO)[C@H]1C[C@H](c2c(-c3ccc(F)cc3)[nH]c3c(F)cc(F)cc32)C1`, the IC50 (against Apolipoprotein L1; in test [1]) was over 1000 nM in each case.
Turning to `O=C([C@H]1C[C@H](c2c(-c3ccc(F)cc3)[nH]c3c(F)cc(F)cc32)C1)N1CCOC[C@H]1CO`, the IC50 against Apolipoprotein L1 is over 1000 nM; in test [1], 250 nM.
The corresponding values for `O=C([C@H]1C[C@H](c2c(-c3ccc(F)cc3)[nH]c3c(F)cc(F)cc32)C1)N1CC[C@H]1CO` are 0.25 nM and under 250 nM.
The matching figures for `O=C(NC[C@H](O)CO)[C@H]1C[C@H](c2c(-c3ccc(F)cc3)[nH]c3c(F)cc(F)cc32)C1`: over 1000 nM and 250 nM.
For `COC[C@@H]1CCN1C(=O)[C@H]1C[C@H](c2c(-c3ccc(F)cc3)[nH]c3c(F)cc(F)cc32)C1`, the values for the half-inhibitory concentration (IC50) (against Apolipoprotein L1; in test [1]) were over 1000 nM and under 250 nM, respectively.
The matching figures for `O=C(NC1CNC[C@@H]1O)[C@H]1C[C@H](c2c(-c3ccc(F)cc3)[nH]c3c(F)cc(F)cc32)C1` (stereo not given in full): over 1000 nM and 250 nM.
The corresponding values for `N#CC(CO)NC(=O)[C@H]1C[C@H](c2c(-c3ccc(F)cc3)[nH]c3c(F)cc(F)cc32)C1` (stereo not given in full) are under 250 nM and under 250 nM.
Take `O=C([C@H]1C[C@H](c2c(-c3ccc(F)cc3)[nH]c3c(F)cc(F)cc32)C1)N1CCC[C@H]1CO`: the values for the concentration for half-maximal inhibition (IC50) (against Apolipoprotein L1; in test [1]) were over 1000 nM and 250 nM, respectively.
The corresponding values for `CC1(CO)CCN1C(=O)[C@H]1C[C@H](c2c(-c3ccc(F)cc3)[nH]c3c(F)cc(F)cc32)C1` (stereo not given in full) are 0.25 nM and under 250 nM.
The matching figures for `O=C1N[C@H](CO)C[C@@H]1NC(=O)[C@H]1C[C@H](c2c(-c3ccc(F)cc3)[nH]c3c(F)cc(F)cc32)C1`: over 1000 nM and over 1000 nM.
The corresponding values for `CC[C@@H](CO)NC(=O)[C@H]1C[C@H](c2c(-c3ccc(F)cc3)[nH]c3c(F)cc(F)cc32)C1` are 0.25 nM and under 250 nM.
As to `CCC(CO)NC(=O)[C@H]1C[C@H](c2c(-c3ccc(F)cc3)[nH]c3c(F)cc(F)cc32)C1` (stereo not given in full), the IC50 against Apolipoprotein L1 was under 250 nM; in test [1], 250 nM.
The corresponding values for `C[C@]1(NC(=O)[C@H]2C[C@H](c3c(-c4ccc(F)cc4)[nH]c4c(F)cc(F)cc43)C2)C[C@@H](O)C1` are 0.25 nM and 250 nM.
Take `NC(=O)CC1CC(c2c(-c3ccc(F)cc3)[nH]c3c(F)cc(F)cc23)C1` (stereo not given): the half-inhibitory concentration (IC50) (on Apolipoprotein L1; in test [1]) was under 250 nM in each case.
Consider `O=C(NC(CO)C1CC1)[C@H]1C[C@H](c2c(-c3ccc(F)cc3)[nH]c3c(F)cc(F)cc32)C1` (stereo not given in full), for which the IC50 on Apolipoprotein L1 worked out at 0.25 nM; in test [1], 250 nM.
The corresponding values for `O=C1NCCC1CNC(=O)[C@H]1C[C@H](c2c(-c3ccc(F)cc3)[nH]c3c(F)cc(F)cc32)C1` (stereo not given in full) are over 1000 nM and over 1000 nM.
In the case of `CC(C)(O)C(O)CNC(=O)[C@H]1C[C@H](c2c(-c3ccc(F)cc3)[nH]c3c(F)cc(F)cc32)C1` (stereo not given in full), the IC50 at Apolipoprotein L1 is over 1000 nM; in test [1] it was 250 nM.
The corresponding values for `NC(=O)CNC[C@H]1C[C@H](c2c(-c3ccc(F)cc3)[nH]c3c(F)cc(F)cc32)C1` are under 250 nM and under 250 nM.
The matching figures for `O=C(NC1(CO)CC(F)(F)C1)[C@H]1C[C@H](c2c(-c3ccc(F)cc3)[nH]c3c(F)cc(F)cc32)C1`: 0.25 nM and under 250 nM.
The matching figures for `NC(=O)[C@@H](CO)NC(=O)[C@H]1C[C@H](c2c(-c3ccc(F)cc3)[nH]c3c(F)cc(F)cc32)C1`: under 250 nM and under 250 nM.
With `CC1CC(NC(=O)[C@H]2C[C@H](c3c(-c4ccc(F)cc4)[nH]c4c(F)cc(F)cc43)C2)C(=O)O1` (stereo not given in full), the IC50 (at Apolipoprotein L1; in test [1]) was over 1000 nM each time.
In the case of `O=C([C@H]1C[C@H](c2c(-c3ccc(F)cc3)[nH]c3c(F)cc(F)cc32)C1)N1CC(CO)C1`, the IC50 against Apolipoprotein L1 is over 1000 nM; in test [1], under 250 nM.
The corresponding values for `O=C1CN(C(=O)[C@H]2C[C@H](c3c(-c4ccc(F)cc4)[nH]c4c(F)cc(F)cc43)C2)CCN1` are over 1000 nM and over 1000 nM.
The corresponding values for `NC(=O)CNC[C@H]1C[C@@H](c2c(-c3ccc(F)cc3)[nH]c3c(F)cc(F)cc32)C1` are under 250 nM and under 250 nM.
The matching figures for `O=C([C@H]1C[C@H](c2c(-c3ccc(F)cc3)[nH]c3c(F)cc(F)cc32)C1)N1C[C@@H](O)[C@H](O)C1`: over 1000 nM and 250 nM.
With `CN(C(=O)[C@H]1C[C@H](c2c(-c3ccc(F)cc3)[nH]c3c(F)cc(F)cc32)C1)C1COCC1O` (stereo not given in full), the concentration for half-maximal inhibition (IC50) (on Apolipoprotein L1; in test [1]) was over 1000 nM in each case.
In the case of `NC(=O)C1CC(c2c(-c3ccc(F)cc3)[nH]c3c(F)cc(F)cc23)C1` (stereo not given), the IC50 on Apolipoprotein L1 came to 0.25 nM; in test [1] it was 250 nM.
The corresponding values for `O=C([C@H]1C[C@H](c2c(-c3ccc(F)cc3)[nH]c3c(F)cc(F)cc32)C1)N1CCOC[C@@H]1CO` are 0.25 nM and under 250 nM.
The matching figures for `CS(=O)(=O)NC(=O)[C@H]1C[C@H](c2c(-c3ccc(F)cc3)[nH]c3c(F)cc(F)cc32)C1`: over 1000 nM and over 1000 nM.
The matching figures for `O=C([C@H]1C[C@H](c2c(-c3ccc(F)cc3)[nH]c3c(F)cc(F)cc32)C1)N1CCC[C@@H](O)C1` (mixture of isomers): 0.25 nM and under 250 nM.
Regarding `O=C([C@H]1C[C@H](c2c(-c3ccc(F)cc3)[nH]c3c(F)cc(F)cc32)C1)N1CCC[C@H](O)C1` (mixture of isomers), the figures for the IC50 (against Apolipoprotein L1; in test [1]) were over 1000 nM and 250 nM, respectively.
The matching figures for `C[C@H](CO)N(C)C(=O)[C@H]1C[C@H](c2c(-c3ccc(F)cc3)[nH]c3c(F)cc(F)cc32)C1` (mixture of isomers): 0.25 nM and under 250 nM.
Regarding `O=C(OC1CN(C(=O)C2CC(c3c(-c4ccc(F)cc4)[nH]c4c(F)cc(F)cc34)C2)C1)C1CCOCC1` (trans isomer), the concentration for half-maximal inhibition (IC50) was 0.25 nM against Apolipoprotein L1 and under 250 nM in test [1].

The IC50 is the concentration at which inhibition is half-maximal.
